According to the NIST ThermoML archive (doi:10.1021/acs.jced.6b00657):

Experiment: xn = mol fraction of the nth substance listed
Conditions: Liquid, absorption in thin film, x2 = 0

CCCCCCCCn1cc[n+](C)c1.N#CC(=C=[N-])C#N [1-methyl-3-octylimidazolium tricyanomethanide] + O=C=O
Conditions | binary diffusion coefficient [m2/s]
298.15 K, 94 kPa | 1.5e-10
298.15 K, 194 kPa | 1.9e-10
298.15 K, 293 kPa | 1.8e-10
298.15 K, 393 kPa | 2e-10
298.15 K, 593 kPa | 2e-10
308.15 K, 194 kPa | 2.3e-10
308.15 K, 294 kPa | 2.4e-10
308.15 K, 393 kPa | 2.5e-10
308.15 K, 493 kPa | 2.5e-10
308.15 K, 593 kPa | 2.5e-10
308.15 K, 693 kPa | 2.7e-10
308.15 K, 793 kPa | 2.7e-10
308.15 K, 893 kPa | 3e-10
308.15 K, 992 kPa | 3.1e-10
308.15 K, 1093 kPa | 2.7e-10
308.15 K, 1193 kPa | 2.5e-10
308.15 K, 1293 kPa | 3.2e-10
308.15 K, 1392 kPa | 3.3e-10
308.15 K, 1492 kPa | 3.5e-10
308.15 K, 1593 kPa | 3.4e-10
308.15 K, 1693 kPa | 3.8e-10
308.15 K, 1793 kPa | 4e-10
308.15 K, 1892 kPa | 3.9e-10
308.15 K, 1993 kPa | 3.9e-10
323.15 K, 94 kPa | 3.2e-10
323.15 K, 194 kPa | 3.4e-10
323.15 K, 293 kPa | 3.5e-10
323.15 K, 393 kPa | 3.3e-10
323.15 K, 493 kPa | 3.3e-10
323.15 K, 593 kPa | 3.6e-10
323.15 K, 693 kPa | 3.9e-10
323.15 K, 793 kPa | 4e-10
323.15 K, 893 kPa | 3.9e-10
323.15 K, 992 kPa | 3.9e-10
323.15 K, 1093 kPa | 3.8e-10
323.15 K, 1193 kPa | 3.6e-10
323.15 K, 1292 kPa | 3.9e-10
323.15 K, 1393 kPa | 4e-10
323.15 K, 1493 kPa | 4.2e-10
323.15 K, 1593 kPa | 4.1e-10
323.15 K, 1692 kPa | 4.6e-10
323.15 K, 1793 kPa | 3.9e-10
323.15 K, 1892 kPa | 4.5e-10
323.15 K, 1993 kPa | 4.4e-10
338.25 K, 94 kPa | 4.3e-10
338.25 K, 194 kPa | 4.1e-10
338.25 K, 294 kPa | 4.5e-10
338.25 K, 394 kPa | 4.4e-10
338.25 K, 494 kPa | 4.2e-10
338.25 K, 593 kPa | 4.8e-10
338.25 K, 692 kPa | 4.3e-10
338.25 K, 794 kPa | 4.7e-10
338.25 K, 892 kPa | 4.2e-10
338.25 K, 993 kPa | 3.8e-10
338.25 K, 1093 kPa | 5e-10
338.25 K, 1193 kPa | 5.1e-10
338.25 K, 1292 kPa | 5e-10
338.25 K, 1392 kPa | 4.9e-10
338.25 K, 1493 kPa | 5e-10
338.25 K, 1692 kPa | 6e-10
338.25 K, 1793 kPa | 5.9e-10
338.25 K, 1892 kPa | 5.5e-10
338.25 K, 1993 kPa | 5.2e-10
353.25 K, 494 kPa | 5.7e-10
353.25 K, 594 kPa | 5.5e-10
353.25 K, 993 kPa | 6e-10
353.25 K, 1093 kPa | 6.7e-10
353.25 K, 1193 kPa | 5.1e-10
353.25 K, 1293 kPa | 4.7e-10
353.25 K, 1392 kPa | 6.5e-10
353.25 K, 1493 kPa | 5.6e-10
353.25 K, 1793 kPa | 7.6e-10
353.25 K, 1893 kPa | 5.8e-10

CCCCCC[n+]1ccn(C)c1.N#C[C-](C#N)C#N [3-hexyl-1-methylimidazolium tricyanomethanide] + O=C=O
Conditions | binary diffusion coefficient [m2/s]
298.15 K, 94 kPa | 2e-10
298.15 K, 194 kPa | 1.8e-10
298.15 K, 293 kPa | 1.8e-10
298.15 K, 393 kPa | 2e-10
298.15 K, 493 kPa | 2e-10
298.15 K, 693 kPa | 2.4e-10
298.15 K, 793 kPa | 2.4e-10
298.15 K, 893 kPa | 2.4e-10
298.15 K, 993 kPa | 2.2e-10
298.15 K, 1193 kPa | 3e-10
298.15 K, 1293 kPa | 3.2e-10
298.15 K, 1393 kPa | 2.9e-10
298.15 K, 1493 kPa | 3e-10
298.15 K, 1693 kPa | 3.1e-10
298.15 K, 1793 kPa | 3.3e-10
308.15 K, 101 kPa | 2.6e-10
308.15 K, 198 kPa | 2.4e-10
308.15 K, 297 kPa | 2.5e-10
308.15 K, 394 kPa | 2.5e-10
308.15 K, 494 kPa | 2.5e-10
308.15 K, 593 kPa | 2.5e-10
308.15 K, 692 kPa | 2.7e-10
308.15 K, 793 kPa | 2.2e-10
308.15 K, 892 kPa | 3.3e-10
308.15 K, 993 kPa | 2.9e-10
308.15 K, 1093 kPa | 3.1e-10
308.15 K, 1192 kPa | 3.3e-10
308.15 K, 1292 kPa | 3.3e-10
308.15 K, 1393 kPa | 3.4e-10
308.15 K, 1492 kPa | 3.4e-10
308.15 K, 1592 kPa | 4e-10
308.15 K, 1693 kPa | 3.8e-10
308.15 K, 1793 kPa | 4.1e-10
308.15 K, 1893 kPa | 4e-10
308.15 K, 1993 kPa | 4.1e-10
323.15 K, 94 kPa | 2.8e-10
323.15 K, 194 kPa | 4.1e-10
323.15 K, 293 kPa | 3.1e-10
323.15 K, 393 kPa | 3.5e-10
323.15 K, 493 kPa | 3.9e-10
323.15 K, 594 kPa | 4.2e-10
323.15 K, 693 kPa | 3.7e-10
323.15 K, 793 kPa | 3.7e-10
323.15 K, 893 kPa | 3.9e-10
323.15 K, 993 kPa | 4e-10
323.15 K, 1093 kPa | 3.8e-10
323.15 K, 1193 kPa | 4e-10
323.15 K, 1293 kPa | 4e-10
323.15 K, 1393 kPa | 4.4e-10
323.15 K, 1493 kPa | 4.3e-10
323.15 K, 1593 kPa | 4.2e-10
323.15 K, 1693 kPa | 4.7e-10
323.15 K, 1793 kPa | 4.5e-10
323.15 K, 1893 kPa | 3.7e-10
323.15 K, 1993 kPa | 5.4e-10
338.25 K, 194 kPa | 5.1e-10
338.25 K, 294 kPa | 3.7e-10
338.25 K, 393 kPa | 4.9e-10
338.25 K, 494 kPa | 6.7e-10
338.25 K, 693 kPa | 4.9e-10
338.25 K, 793 kPa | 4.8e-10
338.25 K, 893 kPa | 5.8e-10
338.25 K, 993 kPa | 5.3e-10
338.25 K, 1092 kPa | 5.3e-10
338.25 K, 1193 kPa | 5.3e-10
338.25 K, 1292 kPa | 5.6e-10
338.25 K, 1393 kPa | 4.8e-10
338.25 K, 1493 kPa | 5.5e-10
338.25 K, 1592 kPa | 4.9e-10
338.25 K, 1693 kPa | 6.6e-10
338.25 K, 1792 kPa | 6e-10
338.25 K, 1893 kPa | 6.1e-10
338.25 K, 1993 kPa | 6.3e-10
353.25 K, 594 kPa | 6.4e-10
353.25 K, 694 kPa | 7.1e-10
353.25 K, 893 kPa | 6e-10
353.25 K, 993 kPa | 6.5e-10
353.25 K, 1193 kPa | 6.3e-10
353.25 K, 1293 kPa | 6.8e-10
353.25 K, 1393 kPa | 6.3e-10
353.25 K, 1593 kPa | 5.3e-10
353.25 K, 1693 kPa | 7.6e-10
353.25 K, 1793 kPa | 7.7e-10
353.25 K, 1893 kPa | 7.7e-10
353.25 K, 1993 kPa | 6.7e-10
